The target of one data set is T1, histamine-H1 receptors (Cavia porcellus, UniProt P31389).
T1 construct: performed in guinea pig cerebellum membranes; from tissue; host or cells: guinea pig cerebellum membranes
The data set can be described thus: Histamine-H1 receptor binding assay ([3H]-mepyramine, guinea pig cerebellum membranes). The procedure: (1) Histamine-H1 receptor binding assay
Briefly, the membrane suspensions (160 μg/ml) were incubated at 30° C. with 0.7 nM [^3H]- mepyramine and different concentrations of the test compounds in a final volume of 250 μl. Binding reactions were terminated by filtration after 30 min of incubation and the bound radioactivity was determined. The specific binding was measured in the presence of 10 μM of promethazine. The affinity of each test compound to the receptor was determined by using at least six different concentrations run in duplicate. IC50 values were obtained by non-linear regression by use of SAS on a DEC AXP computer.

In data set [1] the test system is histamine-induced skin vascular permeability in rats. The data set can be described thus: Histamine-induced skin vascular permeability in rats. The format is in vivo. Conditions: Rattus norvegicus, po; 3 mg/Kg orally, 4 hours after administration, male Wistar rats; read-out: inhibition of the histamine-induced wheal. The procedure: (2) Histamine-induced skin vascular permeability in rats
Male Wistar rats (180-210 g) were treated orally with the test compound or vehicle. One, 4, 8 and 24 hours later, the rats were lightly anaesthetized with ether. The cutaneous reaction was induced by two intradermal injections of 50 μl of histamine (100 μg/ml) onto the back, followed by a intravenous injection of 3 ml/kg of Evan's Blue (5 mg/ml), both dissolved in saline. Sixty min later, the rats were killed by cervical dislocation and the back skin dissected free. The diameter (in millimeters) of the wheal was measured in two directions and the area was calculated.

The mark [2] stands for this setting: guinea pig cerebellum membranes, 0.7 nM [3H]-mepyramine, read-out: BINDING TO RECEPTOR H1 ( IC50 nM ).

Like-named read-outs stand apart in the source and are kept apart here. Some results are limits rather than exact numbers.

T1 sequence (P31389 whole entry): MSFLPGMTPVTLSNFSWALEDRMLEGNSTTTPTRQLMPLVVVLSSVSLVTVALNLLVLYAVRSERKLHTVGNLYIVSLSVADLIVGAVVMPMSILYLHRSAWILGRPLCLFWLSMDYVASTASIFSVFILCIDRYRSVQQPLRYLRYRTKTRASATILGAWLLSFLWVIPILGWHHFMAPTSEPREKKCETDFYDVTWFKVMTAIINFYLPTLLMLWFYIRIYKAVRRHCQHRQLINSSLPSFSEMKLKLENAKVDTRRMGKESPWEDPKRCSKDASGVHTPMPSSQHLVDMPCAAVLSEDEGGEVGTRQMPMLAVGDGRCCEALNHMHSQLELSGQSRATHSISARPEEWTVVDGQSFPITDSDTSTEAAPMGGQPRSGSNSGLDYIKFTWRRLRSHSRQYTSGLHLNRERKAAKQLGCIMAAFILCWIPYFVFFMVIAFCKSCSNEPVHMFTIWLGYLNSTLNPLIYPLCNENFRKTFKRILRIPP

One may read the IC50 as the concentration that gives 50% inhibition. Consider `O=C(O)COCCN1CCN(C(c2ccccc2)c2ccc(Cl)cc2)CC1` (stereo not drawn) [CETIRIZINE, reference compound], for which, on histamine-H1 receptors (setting [2]), the IC50 was 226 nM.

As for `O=C(O)c1ccccc1OCCN1CCC(c2cn(Cc3ccc(F)cc3)c3ccccc23)CC1` [Example 1, 2-(2-{4-[1-(4-fluoro-benzyl)-1H-indol-3-yl]-piperidin-1-yl}-ethoxy)-benzoic acid], the IC50 at histamine-H1 receptors (setting [2]) was found to be 310 nM.

One may read the melting point as the temperature of the solid-liquid transition. Compound `CCCCCn1cc(C2CCN(CCOc3ccccc3C(=O)O)CC2)c2ccccc21` [Example 2, 2-{2-[4-(1-pentyl-1H-indol-3-yl)-piperidin-1-yl]-ethoxy}-benzoic acid] had a melting point of 113 °C. The inhibition in vivo at 3 mg/kg in data set [1] is above 50%. Also, the IC50 at histamine-H1 receptors (setting [2]) came to 57 nM.

On to `CCOCCn1cc(C2CCN(CCCC(=O)O)CC2)c2ccccc21` [Example 3, 4-{4-[1-(2-ethoxy-ethyl)-1H-indol-3-yl]-piperidin-1-yl}-butyric acid], for which, at histamine-H1 receptors (setting [2]), the IC50 was 347 nM.

Turning to `CCOCCn1cc(C2CCN(CCOc3cccc(C(=O)O)c3)CC2)c2ccccc21` [Example 10], the half-maximal inhibitory concentration (IC50) on histamine-H1 receptors (setting [2]) is 145 nM.

As for `CCCCCn1cc(C2CCN(CCCOc3ccccc3C(=O)O)CC2)c2ccccc21` [Example 15, 2-{3-[4-(1-pentyl-1H-indol-3-yl)-piperidin-1-yl]-propoxy}-benzoic acid], on histamine-H1 receptors (setting [2]), the IC50 amounted to 88 nM.

Consider `CCOCCn1cc(C2CCN(CCCOc3cccc(C(=O)O)c3)CC2)c2ccccc21` [Example 19, 3-(3-{4-[1-(2-ethoxy-ethyl)-1H-indol-3-yl]-piperidin-1-yl}-propoxy)-benzoic acid], for which, on histamine-H1 receptors (setting [2]), the concentration for half-maximal inhibition (IC50) amounted to 89 nM.

As to `CCOCCn1cc(C2CCN(CCc3ccc(C=CC(=O)O)cc3)CC2)c2ccccc21` [Example 32, 3-[4-(2-{4-[1-(2-ethoxy-ethyl)-1H-indol-3-yl]-piperidin-1-yl}-ethyl)-phenyl]-acrylic acid], at histamine-H1 receptors (setting [2]), the IC50 stood at 59 nM.

Turning to `CCCCCn1cc(C2CCN(CCCC(O)c3ccc(C(C)(C)C(=O)O)cc3)CC2)c2ccccc21` (stereo not drawn) [Example 34, 2-(4-{1-hydroxy-4-[4-(1-pentyl-1H-indol-3-yl)-piperidin-1-yl]-butyl}-phenyl)-2-methyl-propionic acid], on histamine-H1 receptors (setting [2]), the IC50 worked out at 127 nM.

For the compound `CCCCCn1cc(C2CCN(CCOCC(=O)O)CC2)c2ccccc21` [Example 38, {2-[4-(1-pentyl-1H-indol-3-yl)-piperidin-1-yl]-ethoxy}-acetic acid], on histamine-H1 receptors, the IC50 was 174 nM.

`COCCOCCn1cc(C2CCN(Cc3ccc(C(=O)O)o3)CC2)c2ccccc21` [Example 40, 5-(4-{1-[2-(2-methoxy-ethoxy)-ethyl]-1H-indol-3-yl}-piperidin-1-yl-methyl)-furan-2-carboxylic acid] came in with a melting point of 159 °C. Also, the IC50 on histamine-H1 receptors (setting [2]) was found to be 210 nM.

In the case of `CCCCCn1cc(C2CCN(Cc3ccc(C(=O)O)o3)CC2)c2ccccc21` [Example 41, 5-[4-(1-pentyl-1H-indol-3-yl)-piperidin-1-yl-methyl]-furan-2-carboxylic acid], the melting point lay within 163 to 165 °C. The inhibition in vivo at 3 mg/kg in data set [1] was above 50%. Further, the IC50 on histamine-H1 receptors (setting [2]) was 111 nM.

On to `O=C(O)c1cccc(CN2CCC(c3c[nH]c4ccccc34)CC2)c1` [Example 54, 3-[4-(1H-indol-3-yl)-piperidin-1-ylmethyl]-benzoic acid], for which, on histamine-H1 receptors (setting [2]), the IC50 worked out at 106 nM.

For `CCOCCn1cc(C2CCN(Cc3cccc(C(=O)O)c3)CC2)c2ccccc21` [Example 66, 3-{4-[1-(2-ethoxy-ethyl)-1H-indol-3-yl]-piperidin-1-ylmethyl}-benzoic acid], the IC50 on histamine-H1 receptors (setting [2]) is 248 nM.

Turning to `CCOCCn1cc(C2CCN(CCOc3cccc(F)c3C(=O)O)CC2)c2cccc(Br)c21` [Example 85, 2-(2-{4-[7-bromo-1-(2-ethoxy-ethyl)-1H-indol-3-yl]-piperidin-1-yl}-ethoxy)-6-fluoro-benzoic acid], the IC50 on histamine-H1 receptors (setting [2]) amounted to 152 nM.

`CC(C)OCCn1cc(C2CCN(CCOc3ccccc3C(=O)O)CC2)c2ccccc21` [Example 108, 2-(2-{4-[1-(2-iso-propoxy-ethyl)-1H-indol-3-yl]-piperidin-1-yl}-ethoxy)-benzoic acid]: the inhibition in vivo at 3 mg/kg in data set [1] is above 50%. The concentration for half-maximal inhibition (IC50) at histamine-H1 receptors (setting [2]) turned out to be 275 nM.

On to `C=CCOCCn1cc(C2CCN(CCOc3ccccc3C(=O)O)CC2)c2ccccc21` [Example 134, 2-(2-{4-[1-(2-allyloxy-ethyl)-1H-indol-3-yl]-piperidin-1-yl}-ethoxy)-benzoic acid], for which the IC50 at histamine-H1 receptors (setting [2]) was found to be 86 nM.

As for `CCOCCn1cc(C2CCN(CCOc3ccc(C(=O)O)cc3)CC2)c2ccccc21` [Example 137, 4-(2-{4-[1-(2-ethoxy-ethyl)-1H-indol-3-yl]piperidin-1-yl}-ethoxy)-benzoic acid], the 50% inhibitory concentration (IC50) on histamine-H1 receptors (setting [2]) is 150 nM.

Regarding `CCOCCn1cc(C2CCN(CCOc3ccccc3C(=O)O)CC2)c2ccccc21` [Example 138, 2-(2-{4-[1-(2-ethoxy-ethyl)-1H-indol-3-yl]piperidin-1-yl}-ethoxy)-benzoic acid], in data set [1], the inhibition in vivo at 3 mg/kg is above 50%. For the same compound, on histamine-H1 receptors (setting [2]), the IC50 was found to be 86 nM.

The compound `CC(C)CCn1cc(C2CCN(CCOc3ccccc3C(=O)O)CC2)c2ccccc21` [Example 139, 2-(2-{4-[1-(3-methyl-butyl)-1H-indol-3-yl]-piperidin-1-yl}-ethoxy)-benzoic acid] came in with a melting point of 150 to 151 °C. Further, the IC50 at histamine-H1 receptors (setting [2]) amounted to 205 nM.

Take `CCOCCn1cc(C2CCN(CCOc3ccc(C)cc3C(=O)O)CC2)c2cccc(Br)c21` [Example 143, 2-(2-{4-[7-bromo-1-(2-ethoxy-ethyl)-1H-indol-3-yl]-piperidin-1-yl}-ethoxy)-5-methyl-benzoic acid]: the IC50 on histamine-H1 receptors (setting [2]) turned out to be 222 nM.

Regarding `CCOCCn1cc(C2CCN(CCOc3ccc(C)cc3C(=O)O)CC2)c2cc(F)ccc21` [Example 145, 2-(2-{4-[1-(2-ethoxy-ethyl)-5-fluoro-1H-indol-3-yl]-piperidin-1-yl}-ethoxy)-5-methyl-benzoic acid], the IC50 at histamine-H1 receptors (setting [2]) was 116 nM.

For the compound `CCCCn1cc(C2CCN(CCOc3ccccc3C(=O)O)CC2)c2ccccc21` [Example 148, 2-{2-[4-(1-butyl-1H-indol-3-yl)-piperidin-1-yl]-ethoxy}-benzoic acid], the inhibition in vivo at 3 mg/kg in data set [1] is above 50%. Moreover, the IC50 on histamine-H1 receptors (setting [2]) was found to be 127 nM.

For `CCCCCCn1cc(C2CCN(CCOc3ccccc3C(=O)O)CC2)c2ccccc21` [Example 149, 2-{2-[4-(1-hexyl-1H-indol-3-yl)-piperidin-1-yl]-ethoxy}-benzoic acid], the inhibition in vivo at 3 mg/kg in data set [1] is above 50%. Moreover, on histamine-H1 receptors (setting [2]), the IC50 was found to be 142 nM.

In turn, `O=C(O)c1ccccc1OCCN1CCC(c2c[nH]c3ccccc23)CC1` [Example 151, 2-{2-[4-(1H-indol-3-yl)-piperidin-1-yl]-ethoxy}-benzoic acid] came in with a melting point of 230 °C.

With `CCOCCn1cc(C2CCN(CCC(=O)O)CC2)c2ccccc21` [Example 153, 3-{4-[1-(2-ethoxy-ethyl)-1H-indol-3-yl]-piperidin-1-yl}-propionic acid], the IC50 on histamine-H1 receptors (setting [2]) came to 245 nM.

For `CCOCCn1cc(C2CCN(CCOc3ccc(C)cc3C(=O)O)CC2)c2ccccc21` [Example 154, 2-(2-{4-[1-(2-ethoxy-ethyl)-1H-indol-3-yl]-piperidin-1-yl}-ethoxy)-5-methyl-benzoic acid], the melting point is 109 to 112 °C.

For the compound `O=C(O)Cc1ccc(OCCCN2CCC(c3cn(CC4CC4)c4ccccc34)CC2)cc1` [Example 159, (4-{3-[4-(1-cyclopropylmethyl-1H-indol-3-yl)-piperidin-1-yl]-propoxy}-phenyl)-acetic acid], the melting point was in the range of 83 to 85 °C. For the same compound, at histamine-H1 receptors (setting [2]), the IC50 was 68 nM.
